Source: ChEMBL document CHEMBL3425421, “Chromone derivatives from a sponge-derived strain of the fungus Corynespora cassiicola” (J Nat Prod, 2015)
Active and inactive are the calls of the source.

Experiments:
[1] = tested on: K562; test: Cytotoxicity against human K562 cells by MTT assay; format: functional, cell-based
[2] = tested on: Bacillus cereus; test: Antibacterial activity against Bacillus cereus assessed as absence of growth after 18 hrs by conventional broth dilution assay; format: functional, organism-based
[3] = tested on: HeLa; test: Cytotoxicity against human HeLa cells by MTT assay; format: functional, cell-based
[4] = target: T1, DNA topoisomerase (Bos taurus) (UniProt A0JN73); test: Inhibition of calf thymus Topoisomerase 1 relaxation activity by plasmid relaxation assay
T1 sequence (whole entry): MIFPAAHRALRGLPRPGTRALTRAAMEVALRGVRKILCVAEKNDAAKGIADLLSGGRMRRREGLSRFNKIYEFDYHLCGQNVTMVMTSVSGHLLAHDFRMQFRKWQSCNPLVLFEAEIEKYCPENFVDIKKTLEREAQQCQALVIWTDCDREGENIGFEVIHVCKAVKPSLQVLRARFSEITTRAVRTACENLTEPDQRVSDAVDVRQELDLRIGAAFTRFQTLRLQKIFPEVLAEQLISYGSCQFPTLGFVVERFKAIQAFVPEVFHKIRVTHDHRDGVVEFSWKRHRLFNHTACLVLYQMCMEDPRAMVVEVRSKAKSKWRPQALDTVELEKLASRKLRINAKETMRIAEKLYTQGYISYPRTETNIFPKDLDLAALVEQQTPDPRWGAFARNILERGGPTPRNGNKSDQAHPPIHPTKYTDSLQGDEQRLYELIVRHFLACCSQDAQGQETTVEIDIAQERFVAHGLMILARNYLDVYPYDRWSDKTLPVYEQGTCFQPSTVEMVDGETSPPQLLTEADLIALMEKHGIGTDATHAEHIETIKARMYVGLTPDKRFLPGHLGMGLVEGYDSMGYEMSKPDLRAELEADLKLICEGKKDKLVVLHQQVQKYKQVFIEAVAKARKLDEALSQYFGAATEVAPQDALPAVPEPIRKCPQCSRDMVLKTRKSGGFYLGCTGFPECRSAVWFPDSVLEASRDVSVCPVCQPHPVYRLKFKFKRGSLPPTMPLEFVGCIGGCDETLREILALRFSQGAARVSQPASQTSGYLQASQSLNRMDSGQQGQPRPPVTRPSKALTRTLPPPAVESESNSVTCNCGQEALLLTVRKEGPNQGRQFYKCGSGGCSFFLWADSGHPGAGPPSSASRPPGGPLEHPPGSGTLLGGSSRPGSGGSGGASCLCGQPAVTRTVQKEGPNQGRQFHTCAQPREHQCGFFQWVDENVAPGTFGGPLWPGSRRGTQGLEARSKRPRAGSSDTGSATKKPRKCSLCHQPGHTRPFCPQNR

[5] = tested on: Amphibalanus amphitrite; test: Antifouling activity against Balanus amphitrite Darwin; format: functional, organism-based
[6] = target: Acetylcholinesterase (Electrophorus electricus) (UniProt O42275); test: Inhibition of electric eel AChE using acetylthiocholine iodide as substrate by Ellman's method
Acetylcholinesterase (Electrophorus electricus), sequence (O42275 24-633 limits assumed): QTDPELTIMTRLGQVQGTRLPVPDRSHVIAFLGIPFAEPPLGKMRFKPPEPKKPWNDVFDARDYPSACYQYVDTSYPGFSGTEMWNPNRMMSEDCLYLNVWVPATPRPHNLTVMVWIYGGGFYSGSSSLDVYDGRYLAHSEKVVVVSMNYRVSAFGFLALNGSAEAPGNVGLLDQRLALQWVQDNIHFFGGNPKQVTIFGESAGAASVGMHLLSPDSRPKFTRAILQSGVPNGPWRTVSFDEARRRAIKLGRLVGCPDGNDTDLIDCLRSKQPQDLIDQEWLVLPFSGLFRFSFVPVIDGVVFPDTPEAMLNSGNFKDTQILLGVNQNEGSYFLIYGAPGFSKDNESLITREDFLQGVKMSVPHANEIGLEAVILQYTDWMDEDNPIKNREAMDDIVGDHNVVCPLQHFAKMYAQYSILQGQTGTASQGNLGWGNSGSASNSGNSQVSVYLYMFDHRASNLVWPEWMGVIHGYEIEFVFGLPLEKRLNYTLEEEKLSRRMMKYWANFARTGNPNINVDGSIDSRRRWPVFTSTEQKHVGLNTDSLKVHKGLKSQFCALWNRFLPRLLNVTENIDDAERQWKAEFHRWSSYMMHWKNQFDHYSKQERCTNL

[7] = tested on: Staphylococcus; test: Antibacterial activity against Staphylococcus albus assessed as absence of growth after 18 hrs by conventional broth dilution assay; format: functional, organism-based
[8] = tested on: HL-60; test: Cytotoxicity against human HL60 cells by MTT assay; format: functional, cell-based
[9] = tested on: Vibrio parahaemolyticus; test: Antibacterial activity against Vibrio parahaemolyticus assessed as absence of growth after 18 hrs by conventional broth dilution assay; format: functional, organism-based
[10] = tested on: Bacillus subtilis; test: Antibacterial activity against Bacillus subtilis assessed as absence of growth after 18 hrs by conventional broth dilution assay; format: functional, organism-based
[11] = tested on: Pseudomonas putida; test: Antibacterial activity against Pseudomonas putida assessed as absence of growth after 18 hrs by conventional broth dilution assay; format: functional, organism-based
[12] = tested on: Tetragenococcus halophilus; test: Antibacterial activity against Tetragenococcus halophilus assessed as absence of growth after 18 hrs by conventional broth dilution assay; format: functional
[13] = tested on: Staphylococcus aureus; test: Antibacterial activity against Staphylococcus aureus assessed as absence of growth after 18 hrs by conventional broth dilution assay; format: functional, organism-based
[14] = tested on: A549; test: Cytotoxicity against human A549 cells by MTT assay; format: functional, cell-based

Measured: inhibition

C[C@H](O)C[C@H]1CC(=O)c2c(CC(=O)O)cc(O)cc2O1
inactive: [1] | [2] | [3] | [4] | [5] | [6] | [7] | [8] | [9] | [10] | [11] | [12] | [13] | [14]
